In one data set the target is FGFR1 (Homo sapiens (Human), UniProt P11362). Put plainly: Inhibitory activity on kinase FGFR1 (Caliper mobility shift). The class given is biochemical. Here is the method:
(1). Preparation of 1×Kinase buffer; (2) Preparation of the gradient concentrations of the compounds: the concentration of the compounds to be tested started from 10 μM, which was 3-fold diluted to prepare 10 dilutions, and then tested in duplicated wells. The compounds were 100-fold serially diluted into 10 dilutions with different final concentrations in 96-well plates, each of which was further diluted with 1×Kinase buffer to prepare an intermediate dilution having a concentration of 5 times the final concentration; (3) adding 5 μL of each of the prepared compound solution into the compound wells of 384-well plates, and each concentration set single well; adding 5 μL of 5% DMSO into negative control wells and positive control wells respectively; (4) preparing a kinase solution having a concentration of 2.5 times the final concentration with 1×kinase buffer; (5) adding 10 μL of kinase solution at a concentration of 2.5 times the final concentration into the compound wells and the positive control wells respectively; and adding 10 μL of 1×Kinase buffer into the negative control wells; (6) centrifuging at 1000 rpm for 30 seconds, and incubating at room temperature for 10 minutes after shaking and mixing evenly; (7) preparing a mixed solution of ATP and Kinase substrate 22 having a concentration of 2.5 times the final concentration with 1×Kinase Buffer; (8) adding 10 μL of the mixed solution of ATP and substrate at a concentration of 2.5 times the final concentration to initiate the reaction; (9) Centrifuging the 384-well plates at 1000 rpm for 30 seconds, and incubating at 28° C. for corresponding time respectively after shaking and mixing; (10) adding 30 μL of stop detection solution to stop the kinase reaction, centrifuging at 1000 rpm for 30 seconds, and shaking and mixing the mixture evenly; (11) reading the conversion rate by Caliper Ezreader II. The dose-effect curve was fitted by the log (inhibitor) vs. response-variable slope of GraphPad Prism 5 with the log value of concentration as the X axis and the percentage inhibition rate as the Y axis, then the IC50 value of each compound on the enzyme activity was obtained.

Data set [1] can be described thus: Pharmacokinetics in rats or mice after intragastric and intravenous administration. It counts as in vivo, SD rats or BALB/c mice. Particulars: iv 3 mg/kg, intragastric 10 mg/kg. On the procedure:
(3) LC/MS/MS method was used to measure the drug concentration in plasma at different time points after the embodiment compounds were administered to the rats or mice by intragastric administration and intravenous injection respectively, so as to study the pharmacokinetic behavior of the compounds of the present disclosure in rats or mice and evaluate the pharmacokinetic characteristics thereof. […]

Data set [2] can be described thus: ADME tests: liver microsome metabolic stability and direct inhibition test. The class given is in vitro ADME. The settings on record: metabolic stability, direct inhibition test. On the procedure:
(1) Metabolic stability test: 150 μL system of liver microsome (final concentration 0.5 mg/mL) was used for metabolic stability incubation, the system contained NADPH (final concentration 1 mM), 1 μM test compound and positive control Midazolam or negative control Atenolol, then the reaction was terminated with Tinidazole-containing acetonitrile at 0 min, 5 min, 10 min and 30 min respectively, and the mixtures were vortexed for 10 minutes and centrifuged for 10 minutes at 15000 rmp, 50 μL of the supernatants were added into 96-well plate for injection. The metabolic stability of the compounds was calculated by measuring the relative reduction of the original drug.
(2) Direct inhibition test (DI test): Direct inhibition incubation was carried out with 100 μL system of human liver microsome (final concentration 0.2 mg/mL), the system containing NADPH (final concentration 1 mM), 10 μM compound, positive inhibitor cocktail (Ketoconazole 10 μM, Quinidine 10 μM, Sulfaphenazolum 100 μM, α-Naphthoflavone 10 μM, Tranylcypromine 1000 μM), negative control (BPS containing 0.1% DMSO) and mixed probe substrates (Midazolam 10 μM, Testosterone 100 μM, Dextromethorphan […], Diclofenac 20 μM, Phenacetin 100 μM, Mephenytoin 100 μM) was incubated for 20 minutes and then the reaction was terminated. The relative activity of enzymes was calculated by measuring the relative production of metabolites.

Another data set relates to Hep3B cells. The data set can be described thus: Hep3B cell proliferation (CellTiter-Glo, 72 hours). The class given is cell-based. Particulars: Homo sapiens, Hep3B. Here is the method:
1. Test method: inoculating Hep3B cells (ATCC) in logarithmic growth phase at an appropriate density in a 96-well culture plate, with 100 μL per well. After overnight culture, different concentrations of compounds were added to stay for 72 hours, and menstruum control group (negative control) was set, and the incubation was performed under the condition of 5% CO2 at 37° C. Adding 10 mM compound stock solution to the cells, after the cells were incubated with the compounds for 72 hours, the effects of the compounds on cell proliferation were determined by CellTiter-Glo (Promega) method. 30 μL CTG reagent was added to each well and the resulting mixtures were placed in a 37° C. incubator for 2-4 hours. Then the plate was read by a full-wavelength microplate enzyme reader Envision at a […].
The inhibition rates (%) of the compounds on tumor cell growth were calculated by the following formula: inhibition rate (%)=(OD negative control well−OD administration well)/OD negative control well×100%. IC50 values were obtained by four parameters regression using Graphpad Prism 5 software.

Data set [3] concerns EGFR, VEGFR, PDGFR, FGFR, RET, MET, Src, Lyn, Syk, MEK, CDK, RA, ROS. The data set can be described thus: Inhibitory activities on different kinases (selectivity). It counts as biochemical. The settings on record: versus different kinases. On the procedure: The inhibitory activities of the compounds of the present disclosure on different kinases such as EGFR, VEGFR, PDGFR, FGFR, RET, MET, Src, Lyn, Syk, MEK, CDK, RA, ROS, etc., were also determined.

In data set [4] the test system is various tumor cells (HuH-7, SNU-16, KG1, UM-UC-14, RT-112 etc.). The data set can be described thus: Proliferation inhibitory activity on various tumor cells (SRB or CCK8). It counts as cell-based. The settings on record: SRB or CCK8 method; read-out: proliferation inhibitory activities on various tumor cells.

Where two headings read alike, the source gives them in different places.

Sequence of FGFR1 (P11362 22-822): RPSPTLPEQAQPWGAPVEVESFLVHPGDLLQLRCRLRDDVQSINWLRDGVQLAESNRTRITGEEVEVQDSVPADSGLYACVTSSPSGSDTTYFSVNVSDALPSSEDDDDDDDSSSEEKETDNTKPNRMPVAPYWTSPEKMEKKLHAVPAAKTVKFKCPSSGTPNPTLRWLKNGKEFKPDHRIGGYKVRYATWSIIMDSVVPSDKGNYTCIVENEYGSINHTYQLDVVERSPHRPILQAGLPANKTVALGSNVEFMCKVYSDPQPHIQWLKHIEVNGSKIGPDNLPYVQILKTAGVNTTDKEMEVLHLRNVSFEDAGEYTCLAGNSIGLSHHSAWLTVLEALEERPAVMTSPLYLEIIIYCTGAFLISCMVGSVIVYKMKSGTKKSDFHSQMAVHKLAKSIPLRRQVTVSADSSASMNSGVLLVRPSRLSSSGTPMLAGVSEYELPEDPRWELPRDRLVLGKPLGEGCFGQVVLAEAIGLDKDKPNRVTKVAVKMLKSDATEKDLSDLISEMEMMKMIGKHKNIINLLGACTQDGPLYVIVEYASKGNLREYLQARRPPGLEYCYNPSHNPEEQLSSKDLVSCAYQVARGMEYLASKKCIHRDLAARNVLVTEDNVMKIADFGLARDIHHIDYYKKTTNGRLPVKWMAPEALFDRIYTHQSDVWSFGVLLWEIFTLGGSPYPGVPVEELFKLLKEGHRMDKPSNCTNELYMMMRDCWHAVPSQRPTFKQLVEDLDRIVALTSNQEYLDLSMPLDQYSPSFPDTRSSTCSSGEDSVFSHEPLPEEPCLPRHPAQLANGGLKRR

With `C=CC(=O)N1CCN(CCCc2cn3c(n2)c(-c2c(Cl)c(OC)cc(OC)c2Cl)cc2cnc(NC)nc23)CC1` [Embodiment 3, 1-(4-(3-(6-(2,6-dichloro-3,5-dimethoxyaniline)-2-(methylamine)imidazo[1′,2′:1,6]pyrido[2,3-d]pyrimidin-8-yl)propyl)piperazine-1-yl)prop-2-en-1-one], the IC50 was less than 0.02 µM at FGFR1 (read-out: FGFR1 IC50); less than 0.001 µM at FGFR1 (read-out: IC50 of inhibitory activity on FGFR1); less than 0.02 µM in the data set with Hep3B cells (read-out: Hep3B IC50); less than 0.01 µM with Hep3B cells (read-out: Hep3B cells inhibitory activity IC50); less than 0.1 µM in data set [4]. In addition, in data set [1], the “absorption and metabolism properties in rats and mice” value is “good absorption and metabolism properties in rats and mice”. Moreover, the ADME properties entry in data set [2] is given as “better ADME properties”. Besides, in data set [3], the kinase selectivity result is on record as “greater than 100 times”.

(Values after patent publication US11267815B2, “Class of amino-substituted nitrogen-containing fused ring compounds, preparation method therefor, and use thereof” (SHANGHAI RINGENE BIOPHARMA CO., LTD., priority 2017, dated 2022).)
